Results: the METLIN SMRT retention time set (Domingo-Almenara et al. 2019)

Assay: gradient 5% acetonitrile 3 min, to 50% in 2 min, to 85% in 15 min, held 3 min, 100 µL/min
Settings: column: Zorbax Extend-C18 2.1 x 50 mm; eluents: water / acetonitrile, 0.1% formic acid
Method in brief: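 Over 3 months, pure standards in mixtures of ~100 molecules were run by HPLC coupled to a quadrupole time-of-flight mass spectrometer in positive and negative ionization mode. The column was a Zorbax Extend-C18 (2.1 × 50 mm, 1.8 μm) at 100 μL/min, eluted with water and acetonitrile each holding 0.1% formic acid, with 40 μL dead and 900 μL dwell volumes. Retention time was determined from adduct peaks chosen by software and checked manually.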

Structure (SMILES) | RP-LC retention time [s]
CNC(=O)CCNc1c(-c2ccc(OC)cc2)nc2cnccn12 | 588
O=C(Cc1nnc(-c2cccc(F)c2)o1)N1CCC2(CC1)OCCO2 | 698
c1ccc(NN(Cc2ccncc2)c2ccccc2)cc1 | 774
CN1C(=O)CCc2cc(C(=O)NC3CC3)ccc21 | 626
CC1CS(=O)(=O)N(c2ccc(S(=O)(=O)N3CCC(C(N)=O)CC3)cc2)C1=O (centres undefined) | 640
COc1ccc(OC)c(S(=O)(=O)N2CCC(N3C[C@H](OC)[C@@H]3c3cccnc3)CC2)c1 | 619
Cc1cccc(NC(=O)C2CC(=O)N(c3ccc4c(c3)CCN4C(=O)C3CC3)C2)c1 (centres undefined) | 816
CCC(=O)N1CCC(Oc2nccnc2N(C)C)C1 (centres undefined) | 616
Cc1ccsc1C(=O)N1[C@H]2CC[C@@H]1c1cnc(-c3ccccc3)nc1C2 | 982
Cc1cc(N2CCN(C)CC2)nc2ccc(NC(=O)Nc3ccc(Br)cc3)cc12 | 609
CCNc1cc(N2CCC(CCC(=O)Nc3ccc(C)cc3C)CC2)ncn1 | 686
CCc1ccc(NC(=O)c2c(C)oc3c2C2=NC(CC)CN2C=N3)cc1 (centres undefined) | 712
CCc1ccc(S(=O)(=O)N2CCC(C(=O)NCc3csc(-c4cccs4)n3)CC2)cc1 | 987
CC1(C(=O)NCc2ccc(Cl)cc2)CN(S(C)(=O)=O)CC(=O)N1c1ccc(F)cc1 (centres undefined) | 800
Cc1nnc2n1CCC(N(C)C(=O)c1ccsc1)CC2 (centres undefined) | 566
CC(Cc1cccc(C(F)(F)F)c1)NCCCc1ccccc1 (centres undefined) | 868
CCCN1C(=O)COc2ccc(-c3noc(-c4ccc(OC)c(OC)c4)n3)cc21 | 1110
CCn1cc(-c2nc(C(=O)Nc3ccc(F)cc3C)cs2)c2cccnc21 | 1000

Structure (SMILES) | RP-LC retention time [s]
CCc1ccc(S(=O)(=O)c2cnc(N3CCN(c4cccc(Cl)c4)CC3)nc2N)cc1 | 1270
CCN1C(=O)C(CC(=O)NCC2CCCCC2)Sc2ncccc21 (centres undefined) | 808
NC(=O)C1CCN([C@H]2CS(=O)(=O)C[C@@H]2S(=O)(=O)c2ccc(F)cc2)CC1 | 629
O=C1CCCc2c1cc(C(=O)N1CCCCC1)c(=O)n2-c1ccc(F)cc1 | 704
CCOc1ccccc1NC(=O)Nc1ccc2c(c1)CCN2S(=O)(=O)c1ccc(C)cc1 | 1100
Cc1c(F)cccc1NC(=O)N1CCCC(Cn2cnc3cccnc32)C1 (centres undefined) | 709
CN(C)c1cc2c(cc1NC(=O)C1CC1)n(C)c(=O)c(=O)n2C | 608
CCc1ccccc1NC(=O)N1CCC(OC2CCN(S(C)(=O)=O)CC2)CC1 | 770
COc1cc(OC)cc(-c2nnc(Cc3nc(-c4ccc5c(c4)OCO5)no3)o2)c1 | 978
CC(C)NC(=O)c1n[nH]c2c1CCCCCC2 | 754
Cc1csc(CN2CCN(C(=O)c3cc(Cl)ccc3Cl)CC2)n1 | 654
COCCN1C(=O)c2ccccc2C(C(=O)NCCCN2CCCCC2C)C1c1cccs1 (centres undefined) | 624
O=C(NC1CCCCCC1)c1nnc(-c2ccc(S(=O)(=O)N3CCCCC3)cc2)o1 | 1100
Cc1cc(C(=O)Nc2ccc(-c3nc4ccccc4o3)cc2)no1 | 857
O=C(NCc1ccc(F)cc1F)c1ccc2c(c1)nc1n2CCN(c2ccccc2)C1=O | 781
COc1ccc(NC(=O)N2CCC(n3cnc4cccnc43)CC2)c(OC)c1 | 633
CCC(=O)N1CCc2cc(C(=O)NCc3ccc4c(c3)OCO4)ccc21 | 761
CCCn1ncc(N2CCC(C(=O)N(C)Cc3cn(C)nc3C)CC2)cc1=O | 619

The remaining lines, values ahead:

RP-LC retention time [s] | Structure (SMILES)
814 | O=C(Cc1noc2ccccc12)Nc1cccc2nsnc12
587 | Cn1nccc1C(=O)N1CCN(c2cc(=O)n(C)c(=O)n2C)CC1
780 | COc1ccc(CCN2C(=O)CC(N3CCN(c4ccccc4)CC3)C2=O)cc1OC (centres undefined)
1030 | CC1(C)CC(=O)c2cn(-c3ccccc3)c(=O)c(C(=O)Nc3cc(F)ccc3F)c2C1
541 | COc1cccc(CNC(=O)c2cn3cc(C)ccc3n2)c1OC
606 | CC(=O)N1CCc2nn(CC(=O)Nc3ccccc3Cl)c(=O)cc2C1
956 | COc1ccc(Cl)cc1C(=O)N1CCN(c2ccc(-c3nc(C)c(C)s3)cn2)CC1
995 | COc1ccc2c(C)cc(SCC(=O)Nc3c(C)cccc3C)nc2c1
829 | O=C(C1=NN(c2ccc(F)cc2)c2ccc(F)cc2S1(=O)=O)N1CCOCC1
767 | Cc1cccc(N2CC(C(=O)NC3CCCC3)CC2=O)c1 (centres undefined)
842 | COc1ccccc1OC(C)C(=O)Nc1ccnn1Cc1cccs1 (centres undefined)
977 | Cc1ccc(CNC(=O)C2CCCN(c3nc4ccsc4c(=O)n3-c3ccc(C)cc3)C2)cc1 (centres undefined)
725 | CC(NC(=O)c1ccco1)c1nc2ccccc2n1CC(=O)N(c1ccccc1)C(C)C (centres undefined)
824 | O=C(Cc1cc(-c2ccc(F)cc2)on1)NCCc1c[nH]c2ccccc12
718 | CCN(CC)C(=O)Cn1ccc2ccc(-c3nnc(C)o3)cc21
676 | COc1ccccc1NC(=O)N1CC(c2nc(C)no2)C2(CCOCC2)C1 (centres undefined)
681 | CCOC(=O)Cc1c(CN2CCN(C)CC2)c2ccccc2n1Cc1ccccc1
922 | CCOc1ccc(NS(=O)(=O)c2cc(C(=O)N3CCN(c4ccccc4F)CC3)n[nH]2)cc1
953 | CCCS(=O)(=O)c1nc2ccc(NS(=O)(=O)Cc3ccc(Cl)cc3)cc2s1
924 | COc1ccc(-c2noc(CC(=O)NCc3ccccc3)c2-c2ccc(OC)cc2)cc1
750 | CC(C)Cc1nnc(NC(=O)C2CCN(C(=O)c3ccccc3)CC2)s1
1200 | COC1CN(c2cccc(F)c2)C12CCN(S(=O)(=O)c1cccc(F)c1)CC2 (centres undefined)
850 | CCCS(=O)(=O)N1CCO[C@@H](COC)[C@@H]1c1ccccc1
975 | Cc1ccc(NC(=O)Cn2nc3c(N4CCN(c5ccccc5)CC4)nccn3c2=O)cc1C
986 | COc1cc(-c2nnc(-c3ccc(C)c(S(=O)(=O)N4CCCC4)c3)o2)cc(OC)c1OC
814 | COc1cccc(Cn2nc3c(S(=O)(=O)N4CCCC4)cccn3c2=O)c1
755 | Cc1nc(C)c(C(=O)Nc2ccc(F)cc2F)s1

RP-LC retention time [s] | Structure (SMILES)
810 | Cc1nc(C)c(C(=O)Nc2ccc(F)c(C)c2)s1
563 | CCN1CCN(c2c(C(=O)c3ccccc3)cnc3cc4c(cc23)OCO4)CC1
985 | O=c1c2cc(-c3ccc4c(c3)OCO4)nn2ccn1Cc1ccccc1F
976 | Cc1cc(OCC(=O)Nc2ccc(F)cc2Cl)nc(N2CCN(c3ccccc3)CC2)n1
1060 | Cc1c(-c2noc(-c3ccccc3)n2)nnn1-c1ccccc1
626 | CC(=O)Nc1ccc(CCc2nc3ccc(C(=O)NC(C)Cc4ccco4)cc3[nH]2)cc1 (centres undefined)
809 | COc1cccc(NC(=O)C2c3cc(OC)c(OC)cc3C(=O)N3CCc4ccccc4C23)c1 (centres undefined)
812 | O=c1c2nnc(SCc3ccccc3)n2ccn1-c1ccc(Br)cc1
889 | CC(C)N1C(=O)c2cccnc2Sc2cc(NC(=O)COc3ccccc3)ccc21
858 | COc1ccc(NC(=O)CSc2nnc3c4cc(-c5ccccc5)nn4ccn23)c(OC)c1
700 | COc1ccc(C(=O)CSc2nnc(NC(=O)CN(C)S(C)(=O)=O)s2)cc1
617 | Cc1nn(C(C)C)c(C)c1-c1cc(C(=O)O)[nH]n1
558 | Cc1cn(-c2ccc(SCC(=O)NCc3ccc4c(c3)OCO4)nn2)cn1
800 | CC(C)n1nc(CNC(=O)c2ccsc2)c2ccccc21
596 | CCOc1ccc(CN2CCN(C(=O)c3ccc(C#N)cc3)CC2)cn1
691 | CC(=O)Nc1ccc(C2(C(=O)NCc3ccco3)CCC2)cc1
725 | Cc1ccc(NC(=O)c2sc3nc[nH]c(=O)c3c2C)c(C)c1
738 | O=C(CCC1CCCC1)Nc1ccc(CC(=O)NC2CC2)cc1
855 | Cc1cc(N2CCN(c3ccccn3)CC2)n2nc(C(F)(F)F)c(-c3ccccc3)c2n1
643 | CCn1c(=O)c(N2CCC(C(=O)NCCCN3CCCC3=O)CC2)nc2ccccc21
584 | Cc1cnc(C(=O)NC2C[C@H]3CC[C@@H](C2)N3C(=O)c2cnc(C)cn2)cn1 (some centres undefined)
890 | O=C(NC1CCCC1)c1ccc2ccnc(N3CCN(c4ccc(Cl)cc4)CC3)c2c1
768 | Cc1cccc(CNC(=O)C2CC(=O)N(c3ccc4c(c3)CCN4C(=O)C3CC3)C2)c1 (centres undefined)
698 | COc1ccc(-c2ccc3c(N4CCOC[C@@H]4C)nc(N4CCOC[C@@H]4C)nc3n2)cc1CO
737 | Cn1c(=O)c2nc(S(=O)(=O)CCC(=O)Nc3ccc(F)cc3F)n(C)c2n(C)c1=O
1270 | Cc1nc(-c2cc(S(=O)(=O)N3CCN(c4cccc(Cl)c4)CC3)c(C)s2)cs1
